Where a name gives a salt, the structure may show the parent alone. The source made the active and inactive calls.
Experiments:
[1] = CellTiter-Glo luminescence survival assay, SW480 colon tumor line, concentration-response curve, half-maximal inhibitory concentration (AID 1117338); type: functional
[2] = RKO cell viability reduction, dose response, CellTiter-Glo luminescence (AID 1117322); type: functional
[3] = SNU-C1 cell viability reduction, dose response, CellTiter-Glo luminescence (AID 1117323); type: functional, cell-based
[4] = cytotoxicity toward Colo320 cells – cell-based, CellTiter-Glo luminescence, IC50, dose response (AID 1117334); type: functional; conditions: COLO 320
[5] = cytotoxicity toward HT-29 cells – cell-based, CellTiter-Glo luminescence, IC50, dose response (AID 1117330); type: functional
[6] = Reduced DLD-1 viability, concentration-response, CellTiter-Glo luminescence (AID 1117352); type: functional
[7] = HCT116 cell viability decrease, GSK3B pretreatment – CellTiter-Glo, IC50, dose response (AID 1117339); type: functional; conditions: HCT-116
Cysteine protease ATG4B = target: T1, Cysteine protease ATG4B (Homo sapiens, UniProt Q9Y4P1); type: functional;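 note: Fluorescence-based dose-response confirmation assay measuring inhibition of ATG4B activity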
T1 sequence (Q9Y4P1 whole entry): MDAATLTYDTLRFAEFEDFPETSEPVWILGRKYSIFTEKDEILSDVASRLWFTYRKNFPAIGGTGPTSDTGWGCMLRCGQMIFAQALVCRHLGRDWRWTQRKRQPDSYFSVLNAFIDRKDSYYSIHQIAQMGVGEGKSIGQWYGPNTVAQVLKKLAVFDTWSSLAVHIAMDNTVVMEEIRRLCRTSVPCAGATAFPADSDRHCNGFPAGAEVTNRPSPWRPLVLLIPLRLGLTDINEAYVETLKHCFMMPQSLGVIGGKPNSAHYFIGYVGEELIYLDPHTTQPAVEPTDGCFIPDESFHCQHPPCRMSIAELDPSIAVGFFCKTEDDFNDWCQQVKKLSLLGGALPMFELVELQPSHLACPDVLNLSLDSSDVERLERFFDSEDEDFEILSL

Phospholipase A2 = Phospholipase A2 (Homo sapiens, UniProt P04054); type: functional;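 note: confirmatory dose-response counterscreen on phospholipase A2, testing hits that came from an ultra-high-throughput screen for ATG4B inhibitors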
Chain of Phospholipase A2 (P04054 whole entry): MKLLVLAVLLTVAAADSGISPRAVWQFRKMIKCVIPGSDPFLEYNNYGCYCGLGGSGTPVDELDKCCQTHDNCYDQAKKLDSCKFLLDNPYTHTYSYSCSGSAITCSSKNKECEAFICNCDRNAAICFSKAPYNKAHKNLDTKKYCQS

Vero = assay: viability of Vero cells under compound – cytotoxicity control for flavivirus capping enzyme inhibitors (AID 588742); type: functional; conditions: Chlorocebus sabaeus
Genome polyprotein = Genome polyprotein (dengue virus type 2, UniProt P29990); assay: flavivirus cap methylation enzyme inhibition – biochemical, confirmation dose response, primary screen (AID 588689); type: functional
Chain of Genome polyprotein (P29990 2492-3391 limits assumed): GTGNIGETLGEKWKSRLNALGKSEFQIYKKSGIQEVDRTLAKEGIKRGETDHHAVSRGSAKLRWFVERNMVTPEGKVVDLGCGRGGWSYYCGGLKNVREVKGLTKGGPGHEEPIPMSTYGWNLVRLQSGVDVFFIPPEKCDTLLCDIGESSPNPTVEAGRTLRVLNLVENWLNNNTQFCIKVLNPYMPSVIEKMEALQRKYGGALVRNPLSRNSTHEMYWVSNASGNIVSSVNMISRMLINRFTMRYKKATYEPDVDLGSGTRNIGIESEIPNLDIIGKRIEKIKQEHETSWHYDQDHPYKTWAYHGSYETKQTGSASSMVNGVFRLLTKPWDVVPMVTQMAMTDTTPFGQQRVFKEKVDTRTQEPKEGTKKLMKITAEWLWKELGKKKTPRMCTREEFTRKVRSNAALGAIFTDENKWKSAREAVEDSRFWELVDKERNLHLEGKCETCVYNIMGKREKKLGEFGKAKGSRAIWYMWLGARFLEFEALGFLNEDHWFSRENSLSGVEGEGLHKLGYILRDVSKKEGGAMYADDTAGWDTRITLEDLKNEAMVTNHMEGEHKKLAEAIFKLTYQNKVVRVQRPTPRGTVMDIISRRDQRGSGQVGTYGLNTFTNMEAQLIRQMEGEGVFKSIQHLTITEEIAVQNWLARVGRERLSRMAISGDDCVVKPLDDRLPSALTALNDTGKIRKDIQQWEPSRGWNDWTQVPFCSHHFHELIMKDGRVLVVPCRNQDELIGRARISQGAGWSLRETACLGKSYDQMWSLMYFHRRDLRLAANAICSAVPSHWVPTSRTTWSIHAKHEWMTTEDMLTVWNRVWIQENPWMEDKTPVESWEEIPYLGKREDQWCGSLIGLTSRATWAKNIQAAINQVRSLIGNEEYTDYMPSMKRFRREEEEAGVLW

[8] = target: Dual specificity tyrosine-phosphorylation-regulated kinase 1A (Rattus norvegicus, UniProt Q63470); type: biochemical, Homo sapiens
[9] = target: T2, Long-chain-fatty-acid--AMP ligase FadD28 (Mycobacterium tuberculosis, UniProt P9WQ59); assay: Fluorescence polarization aasay to screen for inhibitors that compete for the binding of FadD28 to a bisubstrate Measured in Biochemical System Using Plate Reader - 2147-01_Inhibitor_Dose_CherryPick_Activity.; type: functional, Mycobacterium tuberculosis H37Rv
T2 sequence (P9WQ59 whole entry): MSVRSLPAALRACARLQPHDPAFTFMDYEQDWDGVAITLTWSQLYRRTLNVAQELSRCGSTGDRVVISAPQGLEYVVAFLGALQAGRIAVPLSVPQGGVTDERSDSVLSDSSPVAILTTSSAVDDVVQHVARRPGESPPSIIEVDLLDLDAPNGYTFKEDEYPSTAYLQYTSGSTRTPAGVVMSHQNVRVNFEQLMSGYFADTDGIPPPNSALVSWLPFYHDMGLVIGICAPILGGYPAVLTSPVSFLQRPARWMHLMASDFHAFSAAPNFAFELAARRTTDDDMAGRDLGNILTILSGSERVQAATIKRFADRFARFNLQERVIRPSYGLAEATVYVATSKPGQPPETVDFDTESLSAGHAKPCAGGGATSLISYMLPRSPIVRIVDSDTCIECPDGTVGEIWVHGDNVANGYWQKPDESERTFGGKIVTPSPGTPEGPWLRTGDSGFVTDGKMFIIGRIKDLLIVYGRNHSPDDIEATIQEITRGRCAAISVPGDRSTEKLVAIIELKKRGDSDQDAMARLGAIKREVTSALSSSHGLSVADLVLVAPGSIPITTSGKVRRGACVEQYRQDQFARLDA

[10] = target: T3, Histone-lysine N-methyltransferase NSD2 (Homo sapiens, UniProt O96028); type: biochemical
T3 sequence (O96028 whole entry): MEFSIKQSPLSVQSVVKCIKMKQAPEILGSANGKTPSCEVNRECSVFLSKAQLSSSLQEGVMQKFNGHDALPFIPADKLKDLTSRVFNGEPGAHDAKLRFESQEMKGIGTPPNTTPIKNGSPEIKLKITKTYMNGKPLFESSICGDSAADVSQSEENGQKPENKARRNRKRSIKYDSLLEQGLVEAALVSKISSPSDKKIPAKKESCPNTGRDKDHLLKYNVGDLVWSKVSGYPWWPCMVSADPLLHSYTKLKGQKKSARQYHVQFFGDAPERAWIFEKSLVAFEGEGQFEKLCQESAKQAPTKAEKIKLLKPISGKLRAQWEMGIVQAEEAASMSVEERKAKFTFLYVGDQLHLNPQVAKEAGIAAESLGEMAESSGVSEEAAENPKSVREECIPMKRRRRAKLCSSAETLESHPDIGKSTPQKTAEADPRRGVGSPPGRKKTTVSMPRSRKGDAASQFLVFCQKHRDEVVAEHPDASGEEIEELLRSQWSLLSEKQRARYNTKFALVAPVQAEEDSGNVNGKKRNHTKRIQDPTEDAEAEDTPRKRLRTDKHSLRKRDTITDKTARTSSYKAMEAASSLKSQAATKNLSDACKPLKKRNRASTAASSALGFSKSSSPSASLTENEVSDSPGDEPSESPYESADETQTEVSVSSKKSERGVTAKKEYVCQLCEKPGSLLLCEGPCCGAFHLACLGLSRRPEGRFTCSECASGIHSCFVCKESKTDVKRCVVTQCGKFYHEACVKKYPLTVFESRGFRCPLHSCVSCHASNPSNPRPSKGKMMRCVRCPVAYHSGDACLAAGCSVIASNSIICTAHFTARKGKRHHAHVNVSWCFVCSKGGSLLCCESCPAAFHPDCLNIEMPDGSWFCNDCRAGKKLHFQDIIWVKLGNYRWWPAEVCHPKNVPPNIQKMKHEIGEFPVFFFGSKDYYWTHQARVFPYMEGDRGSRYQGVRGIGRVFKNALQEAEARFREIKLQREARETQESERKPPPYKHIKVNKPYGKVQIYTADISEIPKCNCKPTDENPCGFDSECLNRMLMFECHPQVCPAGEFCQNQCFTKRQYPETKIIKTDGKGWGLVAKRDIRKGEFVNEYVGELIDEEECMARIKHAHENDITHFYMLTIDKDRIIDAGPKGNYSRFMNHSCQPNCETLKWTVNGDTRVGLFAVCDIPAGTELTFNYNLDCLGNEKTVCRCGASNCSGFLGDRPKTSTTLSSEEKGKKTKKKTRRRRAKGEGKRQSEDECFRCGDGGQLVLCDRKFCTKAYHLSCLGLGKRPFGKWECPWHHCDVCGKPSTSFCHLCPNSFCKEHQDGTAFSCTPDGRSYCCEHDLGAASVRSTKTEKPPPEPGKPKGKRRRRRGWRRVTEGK

[11] = target: T4, Tyrosyl-DNA phosphodiesterase 2 (Homo sapiens, UniProt O95551); assay: potency against TDP2 phosphodiesterase activity – biochemical, epi absorbance, IC50, dose response (AID 743297)
T4 sequence (O95551 whole entry): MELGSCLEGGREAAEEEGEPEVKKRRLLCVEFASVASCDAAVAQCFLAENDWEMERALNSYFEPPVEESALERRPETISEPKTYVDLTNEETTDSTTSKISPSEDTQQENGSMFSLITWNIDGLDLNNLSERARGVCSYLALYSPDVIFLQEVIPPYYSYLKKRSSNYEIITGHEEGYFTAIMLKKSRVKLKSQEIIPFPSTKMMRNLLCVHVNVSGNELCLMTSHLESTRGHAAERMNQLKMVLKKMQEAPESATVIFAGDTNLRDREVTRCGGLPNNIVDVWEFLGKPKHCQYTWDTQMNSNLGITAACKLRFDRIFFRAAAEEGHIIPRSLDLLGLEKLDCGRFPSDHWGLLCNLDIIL

[12] = viability loss in THP-1 monocytes – THP-1 cells, cytotoxicity control for Vif-APOBEC3G degradation inhibitor project, dose response (AID 1117359); type: functional; conditions: THP-1
[13] = target: Glutathione-S-transferase (Schistosoma japonicum, UniProt Q26513); assay: GST-antibody interaction or FRET quenching – biochemical, TR-FRET, artefact control for Vif-APOBEC3G degradation inhibitor project, dose response (AID 1117362); type: functional
Chain of Glutathione-S-transferase (Q26513 whole entry): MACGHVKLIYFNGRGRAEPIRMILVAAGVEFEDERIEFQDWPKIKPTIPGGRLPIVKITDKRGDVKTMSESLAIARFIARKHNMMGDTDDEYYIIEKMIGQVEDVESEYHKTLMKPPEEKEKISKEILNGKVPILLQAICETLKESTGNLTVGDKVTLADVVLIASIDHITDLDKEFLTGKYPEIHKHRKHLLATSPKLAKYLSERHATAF

Row | SMILES | IC50 [1] | IC50 [2] | IC50 [3] | IC50 [4] | IC50 [5] | IC50 [6] | IC50 [7] | IC50 (Cysteine protease ATG4B) | IC50 (Phospholipase A2) | CC50 (Vero) | IC50 (Genome polyprotein) | AC50 [8] | AC50 [9] | AC50 [10] | IC50 [11] | CC50 [12] | IC50 [13]
1 | CCc1cccc(N(C)C(=N)Nc2cccc3ccccc23)c1 [APTIGANEL HYDROCHLORIDE] | > 20 µM (inactive) | > 20 µM (inactive) | > 20 µM (inactive) | > 20 µM (inactive) | > 20 µM (inactive) | > 20 µM (inactive) | > 20 µM (inactive) | – | – | – | – | – | – | – | – | – | –
2 | CN1CCN(C2=C(Cl)C(=O)c3ccccc3C2=O)CC1 | – | – | – | – | – | – | – | 2.02 µM (active) | 58.9 µM (inactive) | 11.8 µM (active) | 6.33 µM (active) | 1.03 µM (active) | > 100 µM (inactive) | 0.108 µM (active) | 0.581 µM (active) | 6.22 µM (active) | > 100 µM (active)

From ChEMBL document CHEMBL1201862, “PubChem BioAssay data set” (2004)
